Data from patent US9981037B2, “Combination therapy of beta-glycolipids and antibodies for the treatment of immune-related disorders” (HADASIT MEDICAL RESEARCH SERVICES AND DEVELOPMENT LTD., priority 2008, dated 2018).

Experiments:
PBL cells = test: Cytokine secretion profile of PBL cells stimulated with anti-CD3; type: in vivo, human
Method: Nine subjects (3/group) were orally administered 0.2 mg, 1.0 mg or 5.0 mg of OKT3 daily for 5 days and immune parameters measured on days 5, 10 and 30 days (FIG. 12). Six subjects (3/group) received 7.5 mg of beta glucosylceramide in combination with 0.2 mg or 1.0 mg of OKT3 and 3 subjects received GC alone. All subjects were treated with 20 mg of Omeprazole (a proton pump inhibitor) during the 5 days of dosing. Dosing occurred in the morning before breakfast at the study site following a 8 hours fast.
PBMCs were isolated from blood samples using Ficol Hypaque solution. To measure proliferation, 2×10^5 cells per well were cultured in triplicate in RPMI 1640 medium with 5% FBS (Biological Industries, Israel), 100 units/ml penicillin, 100 µg/ml streptomycin, 1% Glutamine, 1% non essential […], 1% sodium pyruvate and β-mercapto-ethanol (Biological Industries, Israel). Cells were stimulated with pre-coated antibodies (in 200 μl PBS/well):μg/well of anti OKT-3 mAb (Ortho Biotech Inc, New Jersey, USA) or 5 μg/ml soluble anti-CD3 mAb (eBioscience, CA, USA) or 2.5 μg/ml anti-CD28 mAb (R&D systems, MN, USA). One set of the above wells were added nothing while 10 μg of GC was added to a similar set for 72 h in culture at 37° C. with 5% CO2. Supernatants were collected for IL-13, IL-17 and IFN-γ. Enzyme-linked immunosorbent assays for these cytokines were performed according to the manufacturer's protocol (R&D Systems, Minneapolis, Minn.). For TGF-β, 2×10^5 cells per well were cultured in serum free media (Biotarget, Biological Industries, Israel). After collecting the supernatants, 1 µCi [^3H]thymidine (Amersham Biosciences, UK) was added to each well, and cells were harvested 18 h later. Proliferation was measured by scintillation counting.
To investigate the effect of oral OKT3 on the cytokine secretion profile of T cells, PBL cells were stimulated with 5 μg anti-CD3 and the secretion of IFN-γ, IL-17, TGF-β and IL-13 was measured.

T cells = test: FACS of activation and regulatory markers on T cells; type: in vivo, human
Method: Frozen PBMCs were used for sorting different cell populations, surface staining, and proliferation assays, and cytokine measurements. Cell sorting was performed by thawing […] PBMCs at room temperature (RT) and washing themed twice in medium at RT in 50-ml tubes in a 10-ml volume at 1,400 rpm. Cells were suspended to 20×10^6/ml and stained with seven colors staining of cells using Fc block, Lin-FITC, CD11c-APC, CD123-PE, CD3-Amcyan, CD4-Alexa700, CD25-PB, and 7-AAD was performed. Compensation controls, including an unstained control, were prepared. All samples were washed with medium and filtered into 15-ml tubes with 2 ml volume each to a total volume of 2 ml. CD4+ effector T cells, CD4+ regulatory T cells, myeloid DCs, and plasmacytoid DCs were sorted. Tubes were washed to get retrieve all sticky cells and spin them at 1,400 rpm. All cell populations were put in 350 μl of RLT 350 ul (lysis buffer), and transferred to eppendorff microtubes, and froze at −70° C. RNA was prepared using Qiagen micro kits (Valencia, Calif., USA) and cDNA was prepared using Applied Biosystems kits (Foster City, Calif., USA). We performed real-time PCR (RT-PCR) for different genes on in regulatory T cells, effector T cells, and DCs was performed.
For surface staining, one tube of frozen PBMCs was thawed at room temperature (RT) and washed twice in medium at RT in 50-ml tubes (10-ml volume) at 1,400 rpm. Cells were re-suspended cells at 8-10×10^6 cells/ml and 100 μl was aliquoted into each of 100 ul in 11 wells. For LAP+ cells (two wells), controls wells were preincubated with rLAP for 20 mins, and seven-colors staining of cells using CD3-Amcyan, CD4-Alexa700, CD8-APC, CD25-PB, and LAP-PE for 40 mins was preformed for 40 minutes. Cells were washed and stained with Annexin FITC and 7-AAD in Annexing binding buffer for 15 minutes. Cells were washed and analyzed immediately in Annexin Binding Buffer.
For Foxp3 surface staining (two wells), surface six-colors staining of cells using CD3-Amcyan, CD4-Alexa700, CD8-APC, and CD25-PB were performed for 30 minutes. Intracellular staining for IC/Foxp3-PE from eBiosciences was followed. For all other surface markers (7wellsseven wells), seven—color staining of cells was performed, using CD3-Amcyan, CD4-Alexa700, CD8-APC, CD25-PB, and Annexin FITC, 7-AAD, and IC/CD62L/CD69/CD45RO/CD127/CD28/HLA-DR-PE was performed. Cells were then washed Wash twice and Fix fixed the cells with 0.1% paraformaldehyde. Compensation controls, including an unstained control, were prepared. (Lin-FITC, CD11c-APC, CD123-PE, and CD3-Amcyan were tested in 1 μl/100 μl; CD4-Alexa700, CD25-PB, and 7-AAD were tested in 0.5 ul/100 μl; and LAP-PE, and Annexin-FITC were tested in 3 ul/100 μl).
For surface staining, freshly isolated PBMCs were suspended at 8-10×10^6 cells/ml. Surface two to three colors staining of cells were done with the following surface antibodies: CD4-FITC/CD25-PE, CD8− FITC/CD25-PE, CD3-APC/CD69-PE, CD11c-APC/Lin-FITC/CD86-PE, CD11c-APC/Lin-FITC/CD83-PE, CD11c-APC/Lin-FITC/HLAdr-PE. For LAP staining cells were preincubated with rLAP/control antibody for 20 mins, and stained with CD4-FITC and CD25-PE or CD8-FITC. […]
The inventors next investigated activation of markers and markers associated with regulation on T cells following oral OKT3 treatment. Regulatory T cells were measured by CD25hi, and effector cells were measured by CD25int/lo markers. […]

## OKT3: murine monoclonal anti-CD3 antibody (Orthoclone OKT-3, Ortho Biotech)
PBL cells; 0.2 mg and 5.0 mg oral, not shown
  cytokine secretion findings: similar, though not as consistent findings
PBL cells; 1.0 mg oral
  subjects with decrease in IFN-γ: three subjects
  subjects with decrease of IL-17: two out of three subjects
  subjects with increase of TGF-β: two out of three subjects
PBL cells; 1.0 mg oral, not shown
  subjects with increase of IL-13: three out of three subjects
T cells; 0.2 mg oral, not shown
  subjects with similar pattern (increase) for CD8+CD25+ T cells: two subjects
T cells; 1.0 mg fed group
  CD4+CD25+ and CD8+CD25+ T cells: increase
T cells; 1.0 mg oral
  CD25hi Foxp3+ cells and CD25hi CTLA4 cells: increase
  expression of TGF-β on CD25int/lo T cells: increase
T cells; 1.0 or 5.0 mg oral
  subjects with similar pattern (increase) for CD8+CD25+ T cells: all six subjects
